Test results from ChEMBL document CHEMBL1201862, “PubChem BioAssay data set” (2004).
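1) Cells in 96-well plates. 2) Compound, 48 h, 5 concentrations. 3) Linear interpolation between surrounding doses. 4) Unreached endpoint = highest concentration. GI50 is the concentration that inhibits growth by half.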 Active and inactive are the calls of the source. Rule as the data show it: active = GI50 up to about 1.1 µM and inactive = higher.

Columns and labels:
Test in all cases: inhibition of tumour cell growth, NCI panel, 48 h
[1] = tested on: OVCAR-4
[2] = tested on: HT-29
[3] = tested on: U-251
[4] = tested on: UACC-62
[5] = tested on: NCI-H226
[6] = tested on: SR
[7] = tested on: NCI-H23
[8] = tested on: HOP-18
[9] = tested on: IGROV-1
[10] = tested on: CCRF-CEM
[11] = tested on: KM-20L2
[12] = tested on: UO-31
[13] = tested on: OVCAR-8
[14] = tested on: SN12C
[15] = tested on: M19-MEL
[16] = tested on: LOX IMVI
[17] = tested on: DMS-114
[18] = tested on: NCI-H460
[19] = tested on: M14
[20] = tested on: SNB-75
[21] = tested on: HCT-116
[22] = tested on: SF-268
[23] = tested on: HOP-62
[24] = tested on: SK-MEL-5
[25] = tested on: HOP-92
[26] = tested on: NCI-H522
[27] = tested on: 786-0
[28] = tested on: DMS-273
[29] = tested on: A498
[30] = tested on: KM12
[31] = tested on: HCC 2998
[32] = tested on: SNB-19
[33] = tested on: UACC-257
[34] = tested on: XF498
[35] = tested on: SNB-78
[36] = tested on: HL-60
[37] = tested on: EKVX
[38] = tested on: Malme-3M
[39] = tested on: LXFL 529
[40] = tested on: K562
[41] = tested on: A549
[42] = tested on: MOLT-4
[43] = tested on: DLD-1
[44] = tested on: CAKI-1
[45] = tested on: OVCAR-3
[46] = tested on: SK-OV-3
[47] = tested on: HCT-15
[48] = tested on: RXF 393
[49] = tested on: COLO 205
[50] = tested on: RPMI-8226
[51] = tested on: TK-10
[52] = tested on: OVCAR-5
[53] = tested on: SF-539
[54] = tested on: SW-620
[55] = tested on: SF-295
[56] = tested on: SK-MEL-2
[57] = tested on: ACHN
[58] = tested on: SK-MEL-28

## O=C(NCC(O)CNC(=O)C(F)(F)F)C(F)(F)F
[1]
  GI50: > 100 µM (inactive)
[2]
  GI50: > 100 µM (inactive)
[3]
  GI50: > 100 µM (inactive)
[4]
  GI50: > 100 µM (inactive)
[5]
  GI50: > 100 µM (inactive)
[6]
  GI50: > 100 µM (inactive)
[7]
  GI50: > 100 µM (inactive)
[8]
  GI50: > 100 µM (inactive)
[9]
  GI50: > 100 µM (inactive)
[10]
  GI50: > 100 µM (inactive)
[11]
  GI50: > 100 µM (inactive)
[12]
  GI50: > 100 µM (inactive)
[13]
  GI50: > 100 µM (inactive)
[14]
  GI50: > 100 µM (inactive)
[15]
  GI50: > 100 µM (inactive)
[16]
  GI50: > 100 µM (inactive)
[17]
  GI50: > 100 µM (inactive)
[18]
  GI50: > 100 µM (inactive)
[19]
  GI50: > 100 µM (inactive)
[20]
  GI50: > 100 µM (inactive)
[21]
  GI50: > 100 µM (inactive)
[22]
  GI50: > 100 µM (inactive)
[23]
  GI50: > 100 µM (inactive)
[24]
  GI50: > 100 µM (inactive)
[25]
  GI50: > 100 µM (inactive)
[26]
  GI50: > 100 µM (inactive)
[27]
  GI50: > 100 µM (inactive)
[28]
  GI50: > 100 µM (inactive)
[29]
  GI50: > 100 µM (inactive)
[30]
  GI50: > 100 µM (inactive)
[31]
  GI50: > 100 µM (inactive)
[32]
  GI50: > 100 µM (inactive)
[33]
  GI50: > 100 µM (inactive)
[34]
  GI50: > 100 µM (inactive)
[35]
  GI50: > 100 µM (inactive)
[36]
  GI50: > 100 µM (inactive)
[37]
  GI50: > 100 µM (inactive)
[38]
  GI50: > 100 µM (inactive)
[39]
  GI50: > 100 µM (inactive)
[40]
  GI50: > 100 µM (inactive)
[41]
  GI50: > 100 µM (inactive)
[42]
  GI50: > 100 µM (inactive)
[43]
  GI50: > 100 µM (inactive)
[44]
  GI50: > 100 µM (inactive)
[45]
  GI50: > 100 µM (inactive)
[46]
  GI50: > 100 µM (inactive)
[47]
  GI50: > 100 µM
[48]
  GI50: > 100 µM (inactive)
[49]
  GI50: > 100 µM (inactive)
[50]
  GI50: > 100 µM (inactive)
[51]
  GI50: > 100 µM (inactive)
[52]
  GI50: > 100 µM (inactive)
[53]
  GI50: > 100 µM (inactive)
[54]
  GI50: > 100 µM (inactive)
[55]
  GI50: > 100 µM (inactive)

## C1CNCCNCCNCCN1
[2]
  GI50: 63.5 µM (inactive)
[3]
  GI50: 24 µM (inactive)
[4]
  GI50: > 100 µM (inactive)
[5]
  GI50: > 100 µM (inactive)
[56]
  GI50: > 100 µM (inactive)
[6]
  GI50: 51.6 µM (inactive)
[57]
  GI50: > 100 µM (inactive)
[7]
  GI50: > 100 µM (inactive)
[8]
  GI50: > 100 µM (inactive)
[9]
  GI50: > 100 µM (inactive)
[10]
  GI50: > 100 µM (inactive)
[11]
  GI50: 82.6 µM (inactive)
[12]
  GI50: > 100 µM (inactive)
[13]
  GI50: > 100 µM (inactive)
[14]
  GI50: > 100 µM (inactive)
[15]
  GI50: > 100 µM (inactive)
[16]
  GI50: > 100 µM (inactive)
[17]
  GI50: > 100 µM (inactive)
[18]
  GI50: 35.8 µM (inactive)
[19]
  GI50: > 100 µM (inactive)
[20]
  GI50: > 100 µM (inactive)
[21]
  GI50: 50.1 µM (inactive)
[23]
  GI50: > 100 µM (inactive)
[24]
  GI50: > 100 µM (inactive)
[26]
  GI50: > 100 µM (inactive)
[27]
  GI50: > 100 µM (inactive)
[28]
  GI50: 53.8 µM (inactive)
[58]
  GI50: > 100 µM (inactive)
[29]
  GI50: > 100 µM (inactive)
[30]
  GI50: > 100 µM (inactive)
[31]
  GI50: 64.3 µM (inactive)
[32]
  GI50: > 100 µM (inactive)
[33]
  GI50: > 100 µM (inactive)
[34]
  GI50: 0.14 µM (active)
[35]
  GI50: > 100 µM (inactive)
[36]
  GI50: 62.7 µM (inactive)
[37]
  GI50: > 100 µM (inactive)
[38]
  GI50: > 100 µM (inactive)
[39]
  GI50: > 100 µM (inactive)
[40]
  GI50: 70.5 µM (inactive)
[41]
  GI50: > 100 µM (inactive)
[42]
  GI50: 64.6 µM (inactive)
[43]
  GI50: 41.3 µM (inactive)
[45]
  GI50: 72.6 µM (inactive)
[46]
  GI50: > 100 µM (inactive)
[47]
  GI50: > 10 µM
[48]
  GI50: > 100 µM (inactive)
[49]
  GI50: 37.5 µM (inactive)
[50]
  GI50: > 100 µM (inactive)
[51]
  GI50: > 100 µM (inactive)
[52]
  GI50: > 100 µM (inactive)
[53]
  GI50: > 100 µM (inactive)
[54]
  GI50: 52.2 µM (inactive)
[55]
  GI50: > 100 µM (inactive)

## COc1ccc(Br)c(CCCCC(=O)O)c1
[1]
  GI50: > 100 µM (inactive)
[2]
  GI50: > 100 µM (inactive)
[3]
  GI50: > 100 µM (inactive)
[4]
  GI50: > 100 µM (inactive)
[57]
  GI50: > 100 µM (inactive)
[7]
  GI50: > 100 µM (inactive)
[8]
  GI50: > 100 µM (inactive)
[9]
  GI50: > 100 µM (inactive)
[10]
  GI50: > 100 µM (inactive)
[11]
  GI50: > 100 µM (inactive)
[13]
  GI50: > 100 µM (inactive)
[14]
  GI50: > 100 µM (inactive)
[15]
  GI50: > 100 µM (inactive)
[16]
  GI50: > 100 µM (inactive)
[17]
  GI50: > 100 µM (inactive)
[18]
  GI50: > 100 µM (inactive)
[19]
  GI50: > 100 µM (inactive)
[20]
  GI50: > 100 µM (inactive)
[21]
  GI50: > 100 µM (inactive)
[23]
  GI50: > 100 µM (inactive)
[24]
  GI50: > 100 µM (inactive)
[25]
  GI50: 2.89 µM (inactive)
[27]
  GI50: > 100 µM (inactive)
[28]
  GI50: > 100 µM (inactive)
[58]
  GI50: > 100 µM (inactive)
[29]
  GI50: > 100 µM (inactive)
[31]
  GI50: > 100 µM (inactive)
[32]
  GI50: > 100 µM (inactive)
[33]
  GI50: > 100 µM (inactive)
[34]
  GI50: > 100 µM (inactive)
[35]
  GI50: > 100 µM (inactive)
[36]
  GI50: > 100 µM (inactive)
[37]
  GI50: > 100 µM (inactive)
[39]
  GI50: > 100 µM (inactive)
[40]
  GI50: > 100 µM (inactive)
[41]
  GI50: > 100 µM (inactive)
[42]
  GI50: > 100 µM (inactive)
[43]
  GI50: > 100 µM (inactive)
[44]
  GI50: > 100 µM (inactive)
[45]
  GI50: > 100 µM (inactive)
[46]
  GI50: > 100 µM (inactive)
[47]
  GI50: > 100 µM
[48]
  GI50: > 100 µM (inactive)
[49]
  GI50: > 100 µM (inactive)
[50]
  GI50: > 100 µM (inactive)
[51]
  GI50: > 100 µM (inactive)
[53]
  GI50: > 100 µM (inactive)
[54]
  GI50: > 100 µM (inactive)
[55]
  GI50: > 100 µM (inactive)

## S=c1sc2c(n1-c1ccccc1)N=CNC2S (stereo not given)
[1]
  GI50: > 100 µM (inactive)
[2]
  GI50: > 100 µM (inactive)
[3]
  GI50: 36.1 µM (inactive)
[4]
  GI50: 43.7 µM (inactive)
[5]
  GI50: 44.6 µM (inactive)
[56]
  GI50: > 100 µM (inactive)
[6]
  GI50: 95.9 µM (inactive)
[57]
  GI50: 60.5 µM (inactive)
[7]
  GI50: 63 µM (inactive)
[8]
  GI50: 28.8 µM (inactive)
[9]
  GI50: > 100 µM (inactive)
[10]
  GI50: 46.2 µM (inactive)
[11]
  GI50: > 100 µM (inactive)
[12]
  GI50: 37.3 µM (inactive)
[13]
  GI50: > 100 µM (inactive)
[14]
  GI50: 69.3 µM (inactive)
[15]
  GI50: 96.4 µM (inactive)
[16]
  GI50: > 100 µM (inactive)
[17]
  GI50: 31.1 µM (inactive)
[18]
  GI50: > 100 µM (inactive)
[19]
  GI50: > 100 µM (inactive)
[20]
  GI50: 56.6 µM (inactive)
[21]
  GI50: 98.4 µM (inactive)
[22]
  GI50: 56.5 µM (inactive)
[23]
  GI50: 41.3 µM (inactive)
[24]
  GI50: 57 µM (inactive)
[25]
  GI50: 25.9 µM (inactive)
[26]
  GI50: 45.5 µM (inactive)
[27]
  GI50: > 100 µM (inactive)
[28]
  GI50: > 100 µM (inactive)
[58]
  GI50: > 100 µM (inactive)
[30]
  GI50: > 100 µM (inactive)
[31]
  GI50: 33.1 µM (inactive)
[32]
  GI50: 73.1 µM (inactive)
[33]
  GI50: 48.8 µM (inactive)
[34]
  GI50: > 100 µM (inactive)
[35]
  GI50: 87.5 µM (inactive)
[36]
  GI50: 71.6 µM (inactive)
[37]
  GI50: 64.1 µM (inactive)
[38]
  GI50: 44.8 µM (inactive)
[39]
  GI50: > 100 µM (inactive)
[40]
  GI50: 63.2 µM (inactive)
[41]
  GI50: 65.9 µM (inactive)
[42]
  GI50: 92.5 µM (inactive)
[43]
  GI50: > 100 µM (inactive)
[44]
  GI50: > 100 µM (inactive)
[45]
  GI50: 77.1 µM (inactive)
[46]
  GI50: > 100 µM (inactive)
[47]
  GI50: 97.3 µM
[48]
  GI50: > 100 µM (inactive)
[49]
  GI50: > 100 µM (inactive)
[50]
  GI50: 62.2 µM (inactive)
[51]
  GI50: > 100 µM (inactive)
[52]
  GI50: > 100 µM (inactive)
[53]
  GI50: 65.3 µM (inactive)
[54]
  GI50: > 100 µM (inactive)
[55]
  GI50: 84.7 µM (inactive)
